According to publication PMC13198257, “An aerosolized dual-action autotaxin inhibitor-PPARγ agonist for the treatment of pulmonary fibrosis” (Cell Reports Medicine, 2026):
Entries after “also recorded” stand apart in the source; their conditions may differ. One block for each molecule: values may come before it.

Tests used:
[1] = biological target: T1, ATX (Homo sapiens, UniProt Q13822); assay: Amplex Red assay: ATX inhibitory activity in vitro; type: biochemical; conditions: for IC50: Amplex Red assay; for IC50 / Inhibition of ATX enzymatic activity: in vitro; for % inhibition of ATX: at 100 μΜ, Table S1; for ATX activity, fold lower than that of TGZ: ratio of IC50
T1 construct: purchased Sino Biological 11308-H07H
Method: (§1) ATX inhibitory activity in vitro of examined compounds was assessed with the Amplex Red assay,[32]^,[35]^,[36] as recently published in detail.[37] The assay was done in Amplex Red Assay buffer (Tris 50 mM, CaCl2 5 mM, pH 8). Briefly, 50 μL of increasing concentrations of each compound were placed in separate wells of a black 96-well plate. […] 50 μL of the LPC-containing assay buffer (200 μM) were added to the wells and incubated for 30 min at 37°C to allow the enzyme to initially interact with its substrate. 50 μL of the detection mix (Amplex Red 200 μM, choline oxidase 0.4 U/mL, horseradish peroxidase 4 U/mL) were added to the plate wells. Fluorescence was measured in a Tecan M200 Fluorimeter using excitation at 530 nm and reading at 590 nm, every 5 min for 30 min. The velocity of the reaction and the remaining ATX activity were calculated at the linear phase of the reaction. Dose-response inhibition graphs were plotted with GraphPad Software.

[2] = test system: choline oxidase and horseradish peroxidase; assay: Interference with the 2nd and 3rd reaction of the Amplex Red assay; type: biochemical
Method: as §1
Figure S3. Kinetic analysis of ATX inhibition. Related to Figures 3 and 4
(B) Kinetics for the second (oxidation of choline catalysed by choline oxidase) and third reaction (the conversion of the
Amplex substrate to the fluorescent resorufin catalysed by horseradish peroxidase, HRP) of the Amplex Red Lyso-
phospholipase D assay for representative compounds (TGZ, 4, 5 and EL244). The first reaction includes the conversion of
LPC to LPA catalysed by ATX.
Kinetic graphs are indicative of three technical replicates. […]

[3] = biological target: T2, PPARγ (Homo sapiens, UniProt P37231); assay: PPARγ Gal4 hybrid reporter gene assay; type: cell-based; conditions: Gal4-hybrid reporter, HEK293T cells
T2 construct: expressed in transfected cells; host or cells: HEK293T
T2 sequence (P37231 238-503 limits assumed): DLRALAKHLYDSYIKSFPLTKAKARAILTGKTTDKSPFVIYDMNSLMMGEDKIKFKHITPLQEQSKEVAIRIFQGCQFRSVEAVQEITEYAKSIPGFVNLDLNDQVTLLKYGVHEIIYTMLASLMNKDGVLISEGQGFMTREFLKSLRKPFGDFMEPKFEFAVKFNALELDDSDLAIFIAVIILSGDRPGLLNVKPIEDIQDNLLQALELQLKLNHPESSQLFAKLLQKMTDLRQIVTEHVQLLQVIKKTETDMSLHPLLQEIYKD
Method: All well-established assays were performed following straightforward methodology.[49] Plasmids pFA-CMV-hPPARα-LBD, pFA-CMV-hPPARγ-LBD and pFA-CMV-hPPARδ-LBD code for the hinge region and ligand binding domain of the canonical isoform of the respective nuclear receptor and were used to express the Gal4 hybrid receptors. pFR-Luc (Stratagene, La Jolla, CA, USA) and pRL-SV40 (Promega, Madison, WI, USA) were used as Gal4-responsive reporter and as internal control in the hybrid reporter gene assays, respectively. HEK293T cells were seeded in 96-well plates (3×10^4 cells/well). Before transfection, the medium was changed to Opti-MEM without supplements, and transient transfection with the plasmids pFR-Luc, pRL-SV40, and one pFA-CMV-NR-LBD clone was carried out using Lipofectamine LTX reagent (Invitrogen, Carlsbad, CA, USA) according to the manufacturer’s protocol. […] Normalisation of transfection efficiency and cell growth was performed by dividing firefly luminescence by Renilla luminescence and multiplying the result by 1000, yielding relative light units (RLU). Fold activation was obtained by dividing the mean RLU of the test compound by the mean RLU of the untreated control.

[4] = AMP membrane permeability; type: in vitro ADME; conditions: 10 μΜ
[5] = Cytotoxicity in HepG2 hepatocytes; type: cell-based; conditions: human, HepG2 cells
[6] = biological target: hERG (Homo sapiens, UniProt Q12809); assay: hERG inhibition; type: biochemical
[7] = in vitro; conditions: mouse
[8] = Mouse metabolic clearance and half-life in vitro
[9] = biological target: T1, ATX; assay: Mode of ATX inhibition, Lineweaver-Burk plots (various LPC concentrations); type: biochemical
Method: To determine the mode of inhibition of ATX, various concentrations of TGZ, compound 5 and EL244 were tested against various LPC concentrations. Specifically, TGZ was tested against 6.25, 12.5, 25, 50 and 100 μM LPC, compound 5 was tested against 3.125, 6.25, 12.5, 25, 50 and 100 μM LPC, while EL244 was tested against 25, 50, 100 and 150 μM LPC. Lineweaver–Burk graphs depicting the reciprocal of velocity (1/V) against the reciprocal of substrate concentration (1/S) were plotted with GraphPad Software.

Chain of hERG (Q12809 whole entry): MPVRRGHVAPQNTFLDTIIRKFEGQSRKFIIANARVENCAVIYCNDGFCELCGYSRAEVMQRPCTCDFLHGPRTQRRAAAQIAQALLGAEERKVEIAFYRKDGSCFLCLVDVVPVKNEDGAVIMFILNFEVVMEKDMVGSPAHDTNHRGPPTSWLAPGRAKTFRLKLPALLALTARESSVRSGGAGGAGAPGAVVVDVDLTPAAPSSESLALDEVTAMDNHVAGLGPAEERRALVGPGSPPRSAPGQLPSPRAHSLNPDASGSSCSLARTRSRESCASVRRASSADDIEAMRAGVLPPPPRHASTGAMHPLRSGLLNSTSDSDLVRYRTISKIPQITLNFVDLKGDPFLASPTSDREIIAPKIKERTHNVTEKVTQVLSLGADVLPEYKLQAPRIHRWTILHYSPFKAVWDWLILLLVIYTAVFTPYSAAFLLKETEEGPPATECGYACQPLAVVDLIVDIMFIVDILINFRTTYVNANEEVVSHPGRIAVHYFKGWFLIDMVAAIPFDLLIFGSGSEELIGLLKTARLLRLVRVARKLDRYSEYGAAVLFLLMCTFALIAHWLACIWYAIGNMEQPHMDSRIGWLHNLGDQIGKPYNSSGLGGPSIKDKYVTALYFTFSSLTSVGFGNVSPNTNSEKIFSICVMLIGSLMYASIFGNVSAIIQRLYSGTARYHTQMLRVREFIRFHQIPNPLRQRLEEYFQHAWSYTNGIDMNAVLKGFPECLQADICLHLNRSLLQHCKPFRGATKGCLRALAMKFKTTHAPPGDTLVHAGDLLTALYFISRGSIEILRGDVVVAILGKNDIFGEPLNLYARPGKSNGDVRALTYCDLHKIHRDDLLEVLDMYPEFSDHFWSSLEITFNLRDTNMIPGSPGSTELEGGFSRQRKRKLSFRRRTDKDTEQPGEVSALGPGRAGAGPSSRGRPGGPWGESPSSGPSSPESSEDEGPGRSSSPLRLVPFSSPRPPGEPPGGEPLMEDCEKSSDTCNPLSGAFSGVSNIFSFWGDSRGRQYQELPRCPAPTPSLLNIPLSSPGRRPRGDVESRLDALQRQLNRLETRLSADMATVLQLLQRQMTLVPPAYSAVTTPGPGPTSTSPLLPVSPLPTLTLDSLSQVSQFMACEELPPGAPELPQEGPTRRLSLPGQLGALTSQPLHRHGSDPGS

Compound: COc1cc(-c2ccc(N=Nc3ccc4c(S(=O)(=O)O)cc(S(=O)(=O)O)c(N)c4c3O)c(OC)c2)ccc1N=Nc1ccc2c(S(=O)(=O)O)cc(S(=O)(=O)O)c(N)c2c1O [CSB, Chicago Sky Blue 6B, reference compound]
IC50 [1]: 1600 nM | % inhibition of ATX [1]: fully inhibited ATX activity | % inhibition of ATX ([1]; listed as 425): 99.21%

IC50 [1]: 2000 nM | ATX activity, fold lower than that of TGZ [1]: 4 fold
Compound: N#Cc1sc(NCCOc2ccc(/C=C3/SC(=O)NC3=O)cc2)nc1-c1ccc(F)cc1 [Compound 1, (E)-2-((2-(4-((2,4-dioxothiazolidin-5-ylidene)methyl)phenoxy)ethyl)amino)-4-(4-fluorophenyl)thiazole-5-carbonitrile]

IC50 [1]: 2000 nM | ATX activity, fold lower than that of TGZ [1]: 4 fold
Compound: O=C1NC(=O)/C(=C\c2ccc(OCCN3CCN(C(=O)OCc4cc(Cl)cc(Cl)c4)CC3)cc2)S1 [Compound 2, 3,5-Dichlorobenzyl (E)-4-(2-(4-((2,4-dioxothiazolidin-5-ylidene)methyl)phenoxy)ethyl)piperazine-1-carboxylate]

IC50 [1]: 17800 nM
Compound: Cc1c(C)c2c(c(C)c1O)CCC(C)(COc1ccc(/C=C3/SC(=O)N(Cc4ccc(F)cc4)C3=O)cc1)O2 (stereo not drawn) [Compound 3, (E)-3-(4-fluorobenzyl)-5-(4-((6-hydroxy-2,5,7,8-tetramethylchroman-2-yl)methoxy)benzylidene)thiazolidine-2,4-dione]

IC50 [1]: 940 nM | EC50 [3]: 1000 nM | PPARγ fold activ. (max. activation) [3]: 5.6 ± 0.5 fold
Compound: N#Cc1sc(NCCOc2ccc(CC3SC(=O)NC3=O)cc2)nc1-c1ccc(F)cc1 (stereo not drawn) [Compound 4, 2-((2-(4-((2,4-dioxothiazolidin-5-yl)methyl)phenoxy)ethyl)amino)-4-(4-fluorophenyl)thiazole-5-carbonitrile]
Interference on the 2nd and 3rd steps of the Amplex Red assay [2]: Minimal interference; also recorded: not involved at all in the second and third reaction

Compound: COC(=O)c1ccc2c(c1)NC(=O)/C2=C(\Nc1ccc(N(C)C(=O)CN2CCN(C)CC2)cc1)c1ccccc1 [Nintedanib, reference compound]
AMP [4]: 7.8e-07 cm/s | CC50 [5]: 4000 nM | IC50 [6]: 4000 nM | half-life at 0.1 μM [7]: 58 min | microsomal CLint at 0.1 μM [8]: 122 µL/min/mg

half-life at 0.1 μM [8]: < 10 min | microsomal CLint at 0.1 μM [8]: 766 µL/min/mg
Compound: O=C(CCN1CCN(C(=O)OCc2cc(Cl)cc(Cl)c2)CC1)c1ccc2[nH]c(=O)oc2c1 [PF-8380, reference compound]
CC50 [5]: > 100000 nM | IC50 [6]: 500 nM

IC50 [1]: > 100000 nM | Inhibition of ATX enzymatic activity [1]: not to inhibit ATX enzymatic activity
Compound: CCc1ccc(CCOc2ccc(CC3SC(=O)NC3=O)cc2)nc1 (stereo not drawn) [PGZ, pioglitazone, reference compound]

IC50 [1]: > 100000 nM | Inhibition of ATX enzymatic activity [1]: not to inhibit ATX enzymatic activity
Compound: CN(CCOc1ccc(CC2SC(=O)NC2=O)cc1)c1ccccn1 (stereo not drawn) [RGZ, rosiglitazone, reference compound]

IC50 [1]: 530 nM | % inhibition of ATX [1]: fully inhibited ATX activity | % inhibition of ATX ([1]; listed as 1467): 99.17% | Mode of ATX inhibition [9]: non-competitive
Compound: Cc1c(C)c2c(c(C)c1O)CCC(C)(COc1ccc(CC3SC(=O)NC3=O)cc1)O2 (stereo not drawn) [TGZ, troglitazone, reference compound]
CC50 [5]: 34000 nM
